This note sets out measurements from ChEMBL document CHEMBL1128774, “Substrate specificity of farnesyl diphosphate synthase from Bacillus stearothermophilus” (Bioorg Med Chem Lett, 1995).

The test system of assay [1] is Farnesyl diphosphate synthase (Sus scrofa). The assay is described as follows: Compound was tested for apparent Km values of Farnesyl diphosphate synthase from Pig liver; Active.
Assay [2] deals with Farnesyl diphosphate synthase (Geobacillus stearothermophilus). The assay is described as follows: Compound was tested for apparent Km values of Farnesyl diphosphate synthase from Bacteria; Active.

Structures are written as SMILES. Active and inactive are the calls of the source. No cut-off for these calls is given here.

As to `C/C(=C\COP(=O)(O)OP(=O)(O)O)CCCO`, the result in assay [1] and in assay [2] was Active.
